Test results taken from patent EP1171440B1, “SUBSTITUTED-3-CYANO-[1.7],[1.5], AND [1.8]-NAPHTHYRIDINE INHIBITORS OF TYROSINE KINASES” (Wyeth Holdings Corporation, priority 1999, dated 2000).
Values after ≈ are worked out from the molar mass of the structure shown. Values joined by “and” are separate entries in the source; they are usually repeats but may differ in a detail not shown here. Equal values may be shown once. Read-outs that look alike come from different tables or passages of the source. Values belong to the compound of their own block, whether it stands above or below them.

Experiments:
[1] = target: Mitogen Activated Protein Kinase (Mek-Erk) (Homo sapiens, UniProt P28482+Q02750); assay: Mitogen Activated Protein Kinase (MAPK) coupled MEK 1 / ERK2 assay; format: biochemical; details: separate entries = evaluated more than one time
Experimental: To evaluate inhibitors of the MAP (mitogen activated protein) kinase a two component coupled standard pharmacological test procedure, which measures phosphorylation of a serine/threonine residue in an appropriate sequence in the substrate in the presence and absence of a putative inhibitor, was used. Recombinant human MEK 1 (MAPKK) was first used to activate recombinant human ERK2 (MAPK) and the activated MAPK (ERK) was incubated with substrate (MBP peptide or MYC peptide) in the presence of ATP, Mg^+2 and radiolabeled ^33P ATP. The phosphorylated peptide was captured on a P 81 phosphocellulose filter (paper filter or embedded in microtiter plate) washed and counted by scintillation methods.
The peptide substrates used in the assay are MBP, peptide substrate ([…]), or synthetic Myc substrate, ([…]•5 TFA. The recombinant enzymes used were prepared as GST fusion proteins of human ERK 2 and human MEK 1. Inhibitor samples were prepared as 10X stocks in 10% DMSO and an appropriate aliquot was used to deliver either 10 ug/ml for a single point screening dose or 100, 10, 1, and 0.1 uM final concentration for a dose response curve. Final DMSO concentrations were less than or equal to 1%.
The reaction was run as follows in 50 mM Tris kinase buffer, pH 7.4 in a reaction volume of 50 ul. The appropriate volume of kinase buffer and inhibitor sample was added to the tube. Appropriate dilution of enzyme was delivered to give 2-5 ug recombinant MAPK (Erk ) per tube. The inhibitor was incubated with MAPK (Erk) for 30 min at 0 deg. C. Recombinant Mek (MAPKK) ( 0.5-2.5 ug) or fully activated Mek (0.05-0.1 units) was added to activate the Erk and incubated for 30 min at 30° C. Then substrate and gamma ^33P ATP was were added to give a final concentration of 0.5- 1 mM MBPP or 250-500 uM Myc; 0.2-0.5 uCi gamma ^33P ATP/tube; 50 µM ATP final concentration. Samples were incubated at 30°C for 30 minutes and the reaction was stopped by adding 25 µl of ice cold 10 %TCA. After samples were chilled on ice for 30 min, 20 µl of sample was transferred onto P 81 phosphocellulose filter paper or appropriate MTP with embedded P 81 filter. Filter papers or MTP were washed 2 times with a large volume of 1% acetic acid, then 2 times with water. The filters or MTP were briefly air dried before addition of scintillant and samples were counted in the appropriate scintillation counter set up for reading ^33P isotope. Samples included a positive control (activated enzyme plus substrate); a no enzyme control; a no substrate control; samples with different concentrations of putative inhibitor; and samples with reference inhibitors (other active compounds or non-specific inhibitors such as staurosporine or K252 B).
The raw data was captured as cpm. Sample replicates were averaged and corrected for background count. Mean cpm data was tabulated by group and % inhibition by a test compound was calculated as (corrected cpm control- corrected. cpm sample/control) X 100 = % inhibition. If several concentrations of inhibitor were tested, IC50 values (the concentration which gives 50% inhibition) were determined graphically from the dose response curve for % inhibition or by an appropriate computer program. The results obtained for representative compounds of this invention are listed in TABLE 3 where there may be separate entries for the same compound; this is an indication that the compound was evaluated more than one time.

A431 = assay: Inhibition of Cancer Cell Growth as Measured by Cell Number (Sulforhodamine B); format: cell-based, Human; details: 48 hours exposure
Experimental: (§1) After 48 hours exposure to test compounds, cells were fixed with trichloroacetic acid, and stained with Sulforhodamine B. After washing with trichloroacetic acid, bound dye was solubilized in 10 mM Tris base and optical density was determined using a plate reader. Under conditions of the assay the optical density is proportional to the number of cells in the well. […] The test procedure is described in details by Philip Skehan et. al, J.Natl. Canc. […] The Her2Neu cell line is a 3T3 line that has bbeen transfected with Her2 receptor kinase.

A2780S = assay: as above; format: cell-based, Human; details: 48 hours exposure
Experimental: as §1

SW620 = assay: as above; format: cell-based, Human
Experimental: as §1

SKBR3 = assay: as above; format: cell-based, Human
Experimental: as §1

MDA435 = assay: as above; format: cell-based, Human; details: 48 hours exposure
Experimental: as §1

A2780DDP = assay: as above; format: cell-based, Human; details: 48 hours exposure
Experimental: as §1

[2] = target: T1, EGF-R Kinase (recombinant enzyme) (Homo sapiens, UniProt P00533); assay: Inhibition of Epidermal Growth Factor Receptor Kinase (EGF-R) using recombinant enzyme, RR-SRC peptide phosphorylation with 33P-ATP; format: biochemical; details: for inhibition at 0.5 µM: 0.5 µM concentration of test compound, read-out: % Inhibition @ 0.5
T1 construct: containing the EGFR cDNA encoding amino acids 645 - 1186 preceded by Met-Ala-(His)6; made in house; host or cells: Sf9 insect cells infected with recombinant baculovirus vHcEGFR52
Experimental: Representative test compounds were evaluated for their ability to inhibit the phosphorylation of the tyrosine residue of a peptide substrate catalyzed by the enzyme epidermal growth factor receptor kinase. […] The enzyme used in this assay is the His-tagged cytoplasmic domain of EGFR. A recombinant baculovirus (vHcEGFR52) was constructed containing the EGFR cDNA encoding amino acids 645 - 1186 preceded by Met-Ala-(His)6 . Sf9 cells in 100 mm plates were infected at an moi of 10 pfu/cell and cells were harvested 48 h post infection. A cytoplasmic extract was prepared using 1% Triton X-100 and applied to Ni-NTA column. After washing the column with 20 mM imidazole, HcEGFR was eluted with 250 mM imidazole (in 50 mM Na2HPO4, pH 8.0, 300 mM NaCl). Fractions collected were dialyzed against 10 mM HEPES, pH 7.0, 50 mM NaCl, 10% glycerol, 1ug/mL antipain and leupeptin and 0.1 mM Pefabloc SC. The protein was frozen in dry ice/methanol and stored -70° C.
Test compounds were made into 10 mg/mL stock solutions in 100% dimethylsulfoxide (DMSO). Prior to experiment, stock solutions were diluted to 500 uM with 100% DMSO and then serially diluted to the desired concentration with HEPES buffer (30 mM HEPES pH 7.4).
For the enzyme reaction, 10 uL of each inhibitor (at various concentrations) were added to each well of a 96-well plate. To this was added 3 uL of enzyme (1:10 dilution in 10mM HEPES, pH 7.4 for final conc. of 1:120). This was allowed to sit for 10 min on ice and was followed by the addition of 5 ul peptide (80 uM final conc.), 10ul of 4X Buffer (Table A), 0.25 uL ^33P-ATP and 12 uL H2O. The reaction was allowed to run for 90 min at room temperature and was followed by spotting the entire volume on to precut P81 filter papers. The filter discs were washed 2X with 0.5% phosphoric acid and radioactivity was measured using a liquid scintillation counter. Table A
The IC50 is the concentration of test compound needed to reduce the total amount of phosphorylated substrate by 50%. The % inhibition of the test compound was determined for at least three different concentrations and the IC50 value was evaluated from the dose response curve. […] CPM(control) is in units of counts per minute and was a number expressing the amount of radiolabeled ATP (γ-^33P) incorporated into the RR-SRC peptide substrate by the enzyme after 90 minutes at room temperature in the absence of test compound as measured by liquid scintillation counting. The CPM values were corrected for the background counts produced by ATP in the absence of the enzymatic reaction. Where it was possible to determine an IC50 value, this is reported in TABLE 1 otherwise the % inhibition at 0.5 µM concentration of test compound is shown in TABLE 1.

[3] = Homo sapiens, A-431, 48 h, read-out: IC50
[4] = Homo sapiens, 48 h, read-out: IC50
[5] = Homo sapiens, SW-620, 48 hours exposure, read-out: IC50
[6] = Homo sapiens, SK-BR-3, 48 hours exposure, read-out: IC50
[7] = Homo sapiens, MDA435, 48 h, read-out: IC50
[8] = recombinant His-tagged cytoplasmic domain of EGFR, RR-SRC peptide, 90 min at room temperature, read-out: IC50

T1 sequence (P00533 669-1210): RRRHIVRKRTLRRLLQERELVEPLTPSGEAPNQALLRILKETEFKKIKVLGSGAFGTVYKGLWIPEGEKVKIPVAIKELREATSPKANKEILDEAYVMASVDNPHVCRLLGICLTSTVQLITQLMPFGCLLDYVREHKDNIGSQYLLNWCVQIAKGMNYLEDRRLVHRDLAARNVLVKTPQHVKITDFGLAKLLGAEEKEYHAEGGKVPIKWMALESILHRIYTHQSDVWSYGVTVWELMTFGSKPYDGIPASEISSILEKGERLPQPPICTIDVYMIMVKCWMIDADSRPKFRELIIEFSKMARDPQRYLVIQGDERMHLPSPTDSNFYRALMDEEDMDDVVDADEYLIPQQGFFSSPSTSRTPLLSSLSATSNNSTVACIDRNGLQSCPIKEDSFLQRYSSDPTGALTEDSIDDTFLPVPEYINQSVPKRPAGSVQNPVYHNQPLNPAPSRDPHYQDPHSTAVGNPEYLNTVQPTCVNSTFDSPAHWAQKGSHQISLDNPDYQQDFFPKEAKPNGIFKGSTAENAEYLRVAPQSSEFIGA
Sequence of Mitogen Activated Protein Kinase (Mek-Erk) (P28482 2-360): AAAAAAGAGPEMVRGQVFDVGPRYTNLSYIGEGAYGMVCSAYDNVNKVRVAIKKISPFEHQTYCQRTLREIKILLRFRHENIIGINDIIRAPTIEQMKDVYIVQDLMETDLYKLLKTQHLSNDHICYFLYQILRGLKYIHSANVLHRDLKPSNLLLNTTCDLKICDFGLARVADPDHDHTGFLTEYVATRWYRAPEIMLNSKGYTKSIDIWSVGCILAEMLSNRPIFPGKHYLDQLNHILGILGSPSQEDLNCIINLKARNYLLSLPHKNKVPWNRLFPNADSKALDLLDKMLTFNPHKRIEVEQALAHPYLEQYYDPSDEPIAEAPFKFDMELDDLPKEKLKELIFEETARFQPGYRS
Sequence of Mitogen Activated Protein Kinase (Mek-Erk) (Q02750 whole entry): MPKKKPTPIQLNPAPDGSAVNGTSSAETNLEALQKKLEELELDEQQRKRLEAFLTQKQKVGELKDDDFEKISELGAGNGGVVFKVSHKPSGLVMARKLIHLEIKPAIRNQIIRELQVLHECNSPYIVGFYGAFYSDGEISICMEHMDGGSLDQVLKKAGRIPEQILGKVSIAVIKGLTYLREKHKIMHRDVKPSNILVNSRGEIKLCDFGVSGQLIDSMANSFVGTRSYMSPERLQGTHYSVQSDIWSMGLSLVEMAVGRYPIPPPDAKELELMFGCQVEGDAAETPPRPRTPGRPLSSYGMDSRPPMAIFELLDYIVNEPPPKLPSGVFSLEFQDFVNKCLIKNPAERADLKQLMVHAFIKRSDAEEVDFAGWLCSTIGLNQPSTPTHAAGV

Compound: CN(C)CC=CC(=O)Nc1cnc2ncc(C#N)c(Nc3cccc(Br)c3)c2c1 [Example 30, 4-Dimethylamino-but-2-enoic acid [5-(3-bromo-phenylamino)-6-cyano-[1.8]naphthyridin-3-yl]-amide]
IC50 ([1]; read-out: IC50): 50 µM | IC50 (A431; [3]): 2.76 µg/mL (≈ 6.12 µM) | IC50 (A2780S; [4]): 1.77 µg/mL (≈ 3.92 µM) | IC50 (SW620; [5]): > 5 µg/mL | IC50 (SKBR3; [6]): 4.83 µg/mL (≈ 10.7 µM) | IC50 (MDA435; [7]): > 5 µg/mL | IC50 (A2780DDP; [4]): 4 µg/mL (≈ 8.87 µM) | inhibition at 0.5 µM [2]: 47% | IC50 [2, 8]: 0.8 µM

IC50 ([1]; read-out: IC50): > 100 µM
Compound: N#Cc1cnc2ncc(N)cc2c1Nc1ccc(F)c(Cl)c1 [Example 26, 6-Amino-4-(3-chloro-4-fluoro-phenylamino)-[1.8]naphthyridine-3-carbonitrile]

Compound: N#Cc1cnc2ncc(NC(=O)CCl)cc2c1Nc1cccc(Br)c1 [Example 28, N-[5-(3-Bromo-phenylamino)-6-cyano-[1.8]naphthyridin-3-yl]-2-chloro-acetamide]
IC50 ([1]; read-out: IC50): 6 µM

Compound: COc1ccc(CNc2cc3c(Nc4cccc(Br)c4)c(C#N)cnc3cn2)cc1 [Example 58, 4-(3-Bromo-phenylamino)-6-(4-methoxy-benzylamino)-[1.7]naphthyridine-3-carbonitrile]
IC50 [1]: > 100 µM | IC50 (A431; [3]): 0.4 µg/mL (≈ 0.869 µM) | IC50 (A2780S; [4]): 1 µg/mL (≈ 2.17 µM) | IC50 (SW620; [5]): 4.1 µg/mL (≈ 8.91 µM) | IC50 (SKBR3; [6]): 2.9 µg/mL (≈ 6.3 µM) | IC50 (MDA435; [7]): 2.4 µg/mL (≈ 5.21 µM) | IC50 (A2780DDP; [4]): 1.8 µg/mL (≈ 3.91 µM) | IC50 [2, 8]: > 0.1 µM

IC50 [2, 8]: 0.1 µM
Compound: N#Cc1cnc2ncc([N+](=O)[O-])cc2c1Nc1ccc(F)c(Cl)c1 [Example 25, 4-(3-Chloro-4-fluoro-phenylamino)-6-nitro-[1.8]naphthyridine-3-carbonitrile]

Compound: N#Cc1cnc2cnc(F)cc2c1Nc1cccc(Br)c1 [Example 57, 4-(3-Bromo-phenylamino)-6-fluoro-[1.7]naphthyridine-3-carbonitrile]
IC50 [1]: > 100 µM | IC50 (A431; [3]): 3.92 µg/mL (≈ 11.4 µM) | IC50 (A2780S; [4]): 3.33 µg/mL (≈ 9.7 µM) | IC50 (SW620; [5]): > 5 µg/mL | IC50 (SKBR3; [6]): > 5 µg/mL | IC50 (MDA435; [7]): > 5 µg/mL | IC50 (A2780DDP; [4]): > 5 µg/mL | IC50 [2, 8]: 0.008 µM

Compound: C=CC(=O)Nc1cnc2ncc(C#N)c(Nc3cccc(Br)c3)c2c1 [Example 23, N-[5-(3-Bromo-phenylamino)-6-cyano-[1.8]naphthyridin-3-yl]-acrylamide]
IC50 ([1]; read-out: IC50): > 100 µM and 100 µM | IC50 [2]: 0.007 µM

Compound: N#Cc1cnc2ccc(N)nc2c1Nc1cccc(Br)c1 [Example 49, 6-Amino-4-(3-bromo-phenylamino)-[1.5]naphthyridine-3-carbonitrile]
IC50 [1]: 25 µM

IC50 (A431): 3.056 µg/mL (≈ 7.25 µM) | IC50 (A2780S): 2.344 µg/mL (≈ 5.56 µM) | IC50 (SW620; 48 hours exposure): 4.724 µg/mL (≈ 11.2 µM) | IC50 (SKBR3; 48 hours exposure): 3.591 µg/mL (≈ 8.52 µM) | IC50 (MDA435): 4.203 µg/mL (≈ 9.97 µM) | IC50 (A2780DDP): 2.969 µg/mL (≈ 7.05 µM)
Compound: C[Si](C)(C)C#Cc1cc2c(Nc3cccc(Br)c3)c(C#N)cnc2cn1 [Example 85, 4-(3-Bromo-phenylamino)-6-trimethylsilanylethynyl-[1.7]naphthyridine-3-carbonitrile]

IC50 ([1]; read-out: IC50): > 100 µM
Compound: N#Cc1cnc2cccnc2c1Nc1cccc(Br)c1 [Example 37, 4-(3-Bromophenylamino)-[1.5]naphthyridine-3-carbonitrile]

IC50 [2, 8]: 0.003 µM
Compound: N#Cc1cnc2ncc([N+](=O)[O-])cc2c1Nc1cccc(Br)c1 [Example 21, 4-(3-Bromo-phenylamino)-6-nitro-[1.8]naphthyridine-3-carbonitrile]

Compound: N#Cc1cnc2ncc(N)cc2c1Nc1cccc(Br)c1 [Example 22, 6-Amino-4-(3-bromo-phenylamino)-[1.8]naphthyridine-3-carbonitrile]
IC50 [1]: > 100 µM | IC50 [2, 8]: 0.05 µM

IC50 (A431; [3]): 0.4 µg/mL (≈ 1.18 µM) | IC50 (A2780S; [4]): 3.5 µg/mL (≈ 10.3 µM) | IC50 (SW620; [5]): > 5 µg/mL | IC50 (SKBR3; [6]): 4.1 µg/mL (≈ 12.1 µM) | IC50 (MDA435; [7]): > 5 µg/mL | IC50 (A2780DDP; [4]): 3.1 µg/mL (≈ 9.11 µM) | IC50 [2, 8]: 0.0007 µM
Compound: N#Cc1cnc2cnc(N)cc2c1Nc1cccc(Br)c1 [Example 59, 6-Amino-4-(3-bromo-phenylamino)-[1.7]naphthyridine-3-carbonitrile]

Compound: CCOc1ccc2ncc(C#N)c(Nc3cccc(Br)c3)c2n1 [Example 35, 4-(3-Bromo-phenylamino)-6-ethoxy-[1.5]naphthyridine-3-carbonitrile]
IC50 [1]: > 100 µM | inhibition at 0.5 µM [2]: 9% | IC50 [2, 8]: > 10 µM

Compound: CC#CC(=O)Nc1cnc2ncc(C#N)c(Nc3ccc(F)c(Cl)c3)c2c1 [Example 27, But-2-ynoic acid [5-(3-chloro-4-fluoro-phenylamino)-6-cyano-[1.8]-naphthyridin-3-yl]-amide]
IC50 [1]: > 100 µM
